The results in this text go back to publication PMC13376172, “BromoCatch: a self-labelling tag platform for protein modification and live cell imaging” (Nature Communications, 2026).

Test [1] deals with T1, Brd4-BD2 L387A,E438C (BromoCatch) (Homo sapiens, UniProt O60885, L387A/E438C).
T1 construct: Brd4-BD2 (351–459)
In words: intact protein LC-MS covalent adduct; DSF. Type of test: binding.

Test [2] deals with T2, Brd4-BD2 L387A,E438C (BromoCatch) (Homo sapiens, UniProt O60885, E438C/L387A). The experiment in a line: biochemical.
Another test deals with Brd4-BD2 L387A,M442C (Homo sapiens, UniProt O60885, L387A/M442C).
The target in test [3] is T2, Brd4-BD2 L387A,E438C (BromoCatch). In words: competition FP kinetics (kinact/KI); intact protein MS; DSF ΔTm +[…] °C; streptavidin pull-down. Type of test: binding. On the set-up: Brd4-BD2. As to conditions: read-out: kinact_KI.

As to `C=CS(=O)(=O)Nc1ccc(C2=N[C@@H]([C@@H](CC)C(=O)OC)c3nnc(C)n3-c3sc(C)c(C)c32)cc1` [MR121], the “intact protein LC-MS covalent adduct; DSF” value in test [1] was “vinyl sulfonamide (MR121) and acrylamide (MR116) performed as the best combinations, providing the highest percentage of covalent engagement”.
Consider `CC[C@@H](C(=O)OC)[C@@H]1N=C(c2cccc(NC(=O)CCl)c2)c2c(sc(C)c2C)-n2c(C)nnc21` [MR118], for which, in test [1], the “intact protein LC-MS covalent adduct; DSF” value is “the chloroacetamides MR112 and MR118 demonstrated a slight improvement in potency”.
The term Ki denotes the equilibrium dissociation constant of an inhibitor or competing ligand from its target. The low end stands for higher affinity, the high end for lower affinity. In test [2], `C=CC(=O)Nc1ccc(C2=N[C@@H]([C@@H](CC)C(=O)OC)c3nnc(C)n3-c3sc(C)c(C)c32)cc1` [MR116] showed a Ki of 6.8 nM. Further, on Brd4-BD2 L387A,M442C, the “intact protein LC-MS covalent adduct; DSF” value was “(acrylamide, chloroacetamide, vinyl sulfonamide and epoxide) showed covalent modification of both cysteine-containing mutants”.
For `C=CC(=O)Nc1cccc(C2=N[C@@H]([C@@H](CC)C(=O)OC)c3nnc(C)n3-c3sc(C)c(C)c32)c1` [MR119], in test [1], the “intact protein LC-MS covalent adduct; DSF” value was “Brd4-BD2^L387A,E438C exhibited excellent reactivity towards both meta and para electrophilic ligands”.
For `CC[C@@H](C(=O)OC)[C@@H]1N=C(c2ccc(NC(=O)CCl)cc2)c2c(sc(C)c2C)-n2c(C)nnc21` [MR112], the “intact protein LC-MS covalent adduct; DSF” value in test [1] is “para chloroacetamide (MR112), vinyl sulfonamide (MR121) and acrylamide (MR116) performed as the best combinations”.
Take `C=CC(=O)Nc1ccc(C2=N[C@@H]([C@@H](CC)C(=O)NCCOCCOCCOCCOCCNC(=O)CCCC[C@@H]3SC[C@@H]4NC(=O)N[C@@H]43)c3nnc(C)n3-c3sc(C)c(C)c32)cc1` [MR169]: in test [3], the kinact/KI was 37000 M⁻¹ s⁻¹.
